Read-outs that look alike come from different tables or passages of the source.
How the values were obtained:
[1] = molecular target: T1, EGFR L858R T790M in NCI-H1975 cell line (Homo sapiens, UniProt P00533, L858R/T790M); assay: NCI-H1975 pEGFR AlphaLISA assay; assay type: cell-based; conditions: NCI-H1975 cells (EGFR L858R T790M), p-EGFR (Tyr1068), 4-5 hours incubation; read-out: Ext pEGFR H1975 GMean IC50 (nM) Protocol: @Pharmaron AlphaLISA (Num)
T1 construct: host or cells: NCI-H1975
Method: The NCI-H1975 cells were seeded at 12.5K/well in 22 μL into 384 well opti plate (PerkinElmer, 6007299) and adhering overnight at 37C/5% CO2. On the next day, the test compounds and DMSO control were added into H1975 cell plate followed by incubation at 37C/5% CO2 for 4-5 hours. […] Then 5 μL of a donor bead mix was added to each well followed by overnight incubation at room temperature in dark. On the next day, the plate was read at a compatible plate reader to obtain pEGFR signal. Percent of pEGFR inhibition was plotted against log concentration of compounds to generate IC50 values.

EGFR (L858R T790M C797S) = molecular target: T2, EGFR (L858R T790M C797S) (Homo sapiens, UniProt P00533, C797S/L858R/T790M); assay: Biochemical EGFR inhibition assay (Caliper mobility shift), EGFR LRTMCS mutant
T2 construct: purchased SignalChem E10-122VG
Method: Reactions proceeded until between 10% to 20% total peptides were phosphorylated at room temperature (25° C.) and were terminated with 35 mM 2,2′,2″,2′″-(ethane-1,2-diyldinitrilo)tetraacetic acid (EDTA). Product was detected using the Caliper mobility shift detection method where the phosphorylated peptide (product) and substrate were electrophoretically separated and measured. Percent activity was plotted against log concentration of compound and points to generate an apparent IC50.

[2] = LRTMCS (PH) IC50 (nM) @ 1 mM ATP (Num)

T2 sequence (P00533 25-1210 T790M/C797S/L858R): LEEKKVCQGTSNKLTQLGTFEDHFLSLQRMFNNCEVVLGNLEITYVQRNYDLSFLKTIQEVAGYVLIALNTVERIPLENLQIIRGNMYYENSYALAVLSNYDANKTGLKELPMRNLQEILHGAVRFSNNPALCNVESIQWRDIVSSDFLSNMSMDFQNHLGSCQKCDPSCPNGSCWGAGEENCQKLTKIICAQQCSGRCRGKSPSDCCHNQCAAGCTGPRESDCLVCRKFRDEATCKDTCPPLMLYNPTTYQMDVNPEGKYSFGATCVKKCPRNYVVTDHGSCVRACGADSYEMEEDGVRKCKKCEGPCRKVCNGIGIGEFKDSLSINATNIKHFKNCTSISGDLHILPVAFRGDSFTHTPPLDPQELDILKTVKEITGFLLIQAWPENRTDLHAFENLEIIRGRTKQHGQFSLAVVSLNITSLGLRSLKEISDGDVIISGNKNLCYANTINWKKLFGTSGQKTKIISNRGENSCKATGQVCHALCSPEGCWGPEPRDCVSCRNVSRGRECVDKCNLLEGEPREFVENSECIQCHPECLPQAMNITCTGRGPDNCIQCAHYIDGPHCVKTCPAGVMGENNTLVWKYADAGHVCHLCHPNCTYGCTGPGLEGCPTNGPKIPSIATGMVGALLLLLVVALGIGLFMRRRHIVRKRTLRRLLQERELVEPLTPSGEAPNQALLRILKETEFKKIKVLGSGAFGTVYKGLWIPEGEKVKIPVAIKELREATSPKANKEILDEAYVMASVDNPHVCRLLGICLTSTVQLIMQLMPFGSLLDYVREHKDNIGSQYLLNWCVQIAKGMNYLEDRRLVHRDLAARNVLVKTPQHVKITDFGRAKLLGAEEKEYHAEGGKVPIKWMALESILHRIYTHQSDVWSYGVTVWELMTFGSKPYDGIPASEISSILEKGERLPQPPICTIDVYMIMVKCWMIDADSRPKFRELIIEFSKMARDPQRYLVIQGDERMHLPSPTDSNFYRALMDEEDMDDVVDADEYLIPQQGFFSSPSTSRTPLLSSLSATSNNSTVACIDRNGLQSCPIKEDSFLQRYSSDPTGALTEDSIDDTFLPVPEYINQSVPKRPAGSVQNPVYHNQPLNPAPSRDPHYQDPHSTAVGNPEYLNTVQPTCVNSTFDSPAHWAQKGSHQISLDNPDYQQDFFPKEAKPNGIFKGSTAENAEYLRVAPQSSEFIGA
T1 sequence (P00533 25-1210 T790M/L858R): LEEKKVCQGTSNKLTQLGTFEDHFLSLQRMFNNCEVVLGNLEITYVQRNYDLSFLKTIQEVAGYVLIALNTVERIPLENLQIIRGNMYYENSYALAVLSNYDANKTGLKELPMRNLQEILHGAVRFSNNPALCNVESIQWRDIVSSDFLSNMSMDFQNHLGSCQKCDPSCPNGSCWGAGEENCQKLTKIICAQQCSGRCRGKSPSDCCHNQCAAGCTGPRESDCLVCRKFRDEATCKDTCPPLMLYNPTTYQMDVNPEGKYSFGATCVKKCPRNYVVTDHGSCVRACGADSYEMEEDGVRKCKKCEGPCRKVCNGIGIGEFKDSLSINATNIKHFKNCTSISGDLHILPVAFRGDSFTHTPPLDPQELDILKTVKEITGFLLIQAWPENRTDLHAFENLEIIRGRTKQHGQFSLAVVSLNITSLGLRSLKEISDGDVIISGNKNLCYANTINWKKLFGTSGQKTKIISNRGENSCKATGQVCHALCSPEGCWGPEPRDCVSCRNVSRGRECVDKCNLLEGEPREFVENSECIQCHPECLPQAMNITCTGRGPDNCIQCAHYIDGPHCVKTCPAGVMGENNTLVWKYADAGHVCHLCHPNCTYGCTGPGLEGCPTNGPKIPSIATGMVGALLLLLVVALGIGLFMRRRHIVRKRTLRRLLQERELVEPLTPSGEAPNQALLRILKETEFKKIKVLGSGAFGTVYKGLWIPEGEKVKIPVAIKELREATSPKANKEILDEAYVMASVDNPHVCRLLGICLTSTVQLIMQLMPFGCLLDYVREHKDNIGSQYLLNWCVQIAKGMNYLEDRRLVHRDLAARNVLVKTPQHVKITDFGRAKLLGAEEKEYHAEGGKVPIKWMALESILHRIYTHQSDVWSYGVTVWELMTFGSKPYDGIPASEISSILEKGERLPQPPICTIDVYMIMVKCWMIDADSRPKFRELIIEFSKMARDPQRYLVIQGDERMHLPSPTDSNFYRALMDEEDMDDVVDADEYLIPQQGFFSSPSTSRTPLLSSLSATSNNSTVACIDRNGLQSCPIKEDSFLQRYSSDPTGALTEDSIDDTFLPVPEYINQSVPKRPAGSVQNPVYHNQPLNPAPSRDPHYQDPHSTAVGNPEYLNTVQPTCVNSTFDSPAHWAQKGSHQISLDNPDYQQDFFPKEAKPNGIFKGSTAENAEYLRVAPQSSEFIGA

IC50 [1] [nM]	IC50 (EGFR (L858R T790M C797S); [2]) [nM]	IC50 (EGFR (L858R T790M C797S); read-out: LRTMCS (PH) IC50 (nM) @ 1 mM ATP (Num)) [nM]	Structure (SMILES)
30 to 50	15 to 20		CC(C)c1cnc(C(=O)NC2CCOCC2)c2cnc(Nc3ccnc(N4CC[C@@H](O)[C@@](C)(F)C4)n3)cc12 [Example 78, 6-((2-((3S,4R)-3-fluoro-4-hydroxy-3-methylpiperidin-1-yl)pyrimidin-4-yl)amino)-4-isopropyl-N-(tetrahydro-2H-pyran-4-yl)-2,7-naphthyridine-1-carboxamide]
30 to 50	15 to 20		CC(C)c1cnc(C(=O)NC2COC2)c2cnc(Nc3ccnc(N4CC[C@@H](O)[C@@](C)(F)C4)n3)cc12 [Example 60, 6-((2-((3S,4R)-3-fluoro-4-hydroxy-3-methylpiperidin-1-yl)pyrimidin-4-yl)amino)-4-isopropyl-N-(oxetan-3-yl)-2,7-naphthyridine-1-carboxamide]
> 50	15 to 20		CC(=O)N1CC(COc2ccc(C(C)C)c3cc(Nc4ccnc(N5CC[C@](C)(O)[C@H](F)C5)n4)ncc23)C1 [Example 26, 1-(3-(((3-((2-((3R,4S)-3-fluoro-4-hydroxy-4-methylpiperidin-1-yl)pyrimidin-4-yl)amino)-5-isopropylisoquinolin-8-yl)oxy)methyl)azetidin-1-yl)ethan-1-one]
20 to 30	< 15		CO[C@H]1C[C@@H](NC(=O)c2ncc(C(C)C)c3cc(Nc4ccnc(N5CC[C@@H](O)[C@@](C)(F)C5)n4)ncc23)C1 [Example 73, 6-((2-((3S,4R)-3-fluoro-4-hydroxy-3-methylpiperidin-1-yl)pyrimidin-4-yl)amino)-4-isopropyl-N-((1s,3s)-3-methoxycyclobutyl)-2,7-naphthyridine-1-carboxamide]
> 50	> 100		CNc1nnc(C(C)C)c2cc(Nc3ccnc(N4CC[C@@H](O)[C@@H](F)C4)n3)ncc12 [Example 95]
> 50	15 to 20		CC(C)c1cnc(C(=O)N[C@@H](C)CF)c2cnc(Nc3ccnc(N4CC[C@@H](O)[C@@](C)(F)C4)n3)cc12 [Example 72, 6-((2-((3S,4R)-3-fluoro-4-hydroxy-3-methylpiperidin-1-yl)pyrimidin-4-yl)amino)-N-((S)-1-fluoropropan-2-yl)-4-isopropyl-2,7-naphthyridine-1-carboxamide]
> 50	20 to 30		CC(C)c1cnc(Nc2cnn(C)c2)c2cnc(Nc3ccnc(N4CC[C@@H](O)[C@@](C)(F)C4)n3)cc12 [Example 6, (3S,4R)-3-fluoro-1-(4-((5-isopropyl-8-((1-methyl-1H-pyrazol-4-yl)amino)-2,7-naphthyridin-3-yl)amino)pyrimidin-2-yl)-3-methylpiperidin-4-ol]
> 50	15 to 20		CC(C)c1cnc(C(=O)NC2CC2)c2cnc(Nc3ccnc(N4CC[C@@H](O)[C@@](C)(F)C4)n3)cc12 [Example 68, N-cyclopropyl-6-((2-((3S,4R)-3-fluoro-4-hydroxy-3-methylpiperidin-1-yl)pyrimidin-4-yl)amino)-4-isopropyl-2,7-naphthyridine-1-carboxamide]
< 10	< 15		CC(=O)N1CC(COc2ccc(C(C)C)c3cc(Nc4ccnc(N5CC[C@@H](O)[C@@](C)(F)C5)n4)ncc23)C1 [Example 8, 1-(3-(((3-((2-((3S,4R)-3-fluoro-4-hydroxy-3-methylpiperidin-1-yl)pyrimidin-4-yl)amino)-5-isopropylisoquinolin-8-yl)oxy)methyl)azetidin-1-yl)ethan-1-one]
30 to 50		15 to 20	CC(C)c1ccc(OC[C@H]2COC(=O)N2C)c2cnc(Nc3ccnc(N4CC[C@@](C)(O)[C@@H](F)C4)n3)cc12 (single isomer, unassigned) [Example 23]
> 50	20 to 30		CC(C)c1ccc(OCCn2cnnc2)c2cnc(Nc3ccnc(N4CC[C@H]5COC[C@H]54)n3)cc12 (single isomer, unassigned) [Example 50]
30 to 50	< 15		CC(C)c1cnc(C(=O)NC2CC(F)(F)C2)c2cnc(Nc3ccnc(N4CC[C@@H](O)[C@@](C)(F)C4)n3)cc12 [Example 75, N-(3,3-difluorocyclobutyl)-6-((2-((3S,4R)-3-fluoro-4-hydroxy-3-methylpiperidin-1-yl)pyrimidin-4-yl)amino)-4-isopropyl-2,7-naphthyridine-1-carboxamide]
10 to 20	< 15		CC(C)c1cnc(NCCS(C)(=O)=O)c2cnc(Nc3ccnc(N4CC[C@@H](O)[C@@](C)(F)C4)n3)cc12 [Example 2, (3S,4R)-3-fluoro-1-(4-((5-isopropyl-8-((2-(methylsulfonyl)ethyl)amino)-2,7-naphthyridin-3-yl)amino)pyrimidin-2-yl)-3-methylpiperidin-4-ol]
30 to 50	< 15		CC(C)c1ccc(OCc2cn(C)nn2)c2cnc(Nc3ccnc(N4CC[C@@H](O)[C@@](C)(F)C4)n3)cc12 [Example 10, (3S,4R)-3-fluoro-1-(4-((5-isopropyl-8-((1-methyl-1H-1,2,3-triazol-4-yl)methoxy)isoquinolin-3-yl)amino)pyrimidin-2-yl)-3-methylpiperidin-4-ol]
> 50	15 to 20		CC(C)c1ccc(OC[C@@H]2COC(=O)N2C)c2cnc(Nc3ccnc(N4CC[C@@H](OCCN(C)C)[C@@H](F)C4)n3)cc12 [Example 53, (R)-4-(((3-((2-((3S,4R)-4-(2-(dimethylamino)ethoxy)-3-fluoro-piperidin-1-yl)pyrimidin-4-yl)amino)-5-isopropylisoquinolin-8-yl)oxy)methyl)-3-methyloxazolidin-2-one]
> 50	< 15		CC(C)c1ccc(OCCn2cnnc2)c2cnc(Nc3ccnc(N4CC[C@](C)(O)[C@H](F)C4)n3)cc12 [Example 27, (3R,4S)-1-(4-((8-(2-(4H-1,2,4-triazol-4-yl)ethoxy)-5-isopropylisoquinolin-3-yl)amino)pyrimidin-2-yl)-3-fluoro-4-methylpiperidin-4-ol]
20 to 30	< 15		CC(=O)N1CC(CNc2ccc(C(C)C)c3cc(Nc4ccnc(N5CC[C@@H](O)[C@@](C)(F)C5)n4)ncc23)C1 [Example 5, 1-(3-(((3-((2-((3S,4R)-3-fluoro-4-hydroxy-3-methylpiperidin-1-yl)pyrimidin-4-yl)amino)-5-isopropylisoquinolin-8-yl)amino)methyl)azetidin-1-yl)ethan-1-one]
> 50	20 to 30		COCCNC(=O)c1ncc(C(C)C)c2cc(Nc3ccnc(N4CC[C@@H](O)[C@@](C)(F)C4)n3)ncc12 [Example 66, 6-((2-((3S,4R)-3-fluoro-4-hydroxy-3-methylpiperidin-1-yl)pyrimidin-4-yl)amino)-4-isopropyl-N-(2-methoxyethyl)-2,7-naphthyridine-1-carboxamide]
30 to 50	15 to 20		CC(C)c1ccc(OC[C@@H]2CCC(=O)N2C)c2cnc(Nc3ccnc(N4CC[C@](C)(O)[C@H](F)C4)n3)cc12 [Example 33, (S)-5-(((3-((2-((3R,4S)-3-fluoro-4-hydroxy-4-methylpiperidin-1-yl)pyrimidin-4-yl)amino)-5-isopropylisoquinolin-8-yl)oxy)methyl)-1-methylpyrrolidin-2-one]
> 50	20 to 30		CC(C)c1ccc(OC[C@H]2CN(C)C(=O)O2)c2cnc(Nc3ccnc(N4CCC(C)(O)CC4)n3)cc12 [Example 16, (R)-5-(((3-((2-(4-hydroxy-4-methylpiperidin-1-yl)pyrimidin-4-yl)amino)-5-isopropylisoquinolin-8-yl)oxy)methyl)-3-methyloxazolidin-2-one]
10 to 20	< 15		CC(C)c1ccc(OC[C@@H]2CC(=O)N(C)C2)c2cnc(Nc3ccnc(N4CC[C@@H](O)[C@@](C)(F)C4)n3)cc12 (single isomer, unassigned) [Example 20]
> 50	15 to 20		[2H]C([2H])([2H])O[C@H]1CCN(c2nccc(Nc3cc4c(C(C)C)ccc(OCCn5ccnc5)c4cn3)n2)C[C@H]1F [Example 48, 8-(2-(1H-imidazol-1-yl)ethoxy)-N-(2-((3R,4S)-3-fluoro-4-(methoxy-d3)piperidin-1-yl)pyrimidin-4-yl)-5-isopropylisoquinolin-3-amine]
> 50	15 to 20		CNC(=O)c1ncc(C(C)C)c2cc(Nc3ccnc(N4CC[C@@H](O)[C@@](C)(F)C4)n3)ncc12 [Example 64, 6-((2-((3S,4R)-3-fluoro-4-hydroxy-3-methylpiperidin-1-yl)pyrimidin-4-yl)amino)-4-isopropyl-N-methyl-2,7-naphthyridine-1-carboxamide]
10 to 20	< 15		CC(C)c1cnc(C(=O)N[C@H]2CN(C)C[C@H]2F)c2cnc(Nc3ccnc(N4CC[C@@H](O)[C@@](C)(F)C4)n3)cc12 (single isomer, unassigned) [Example 87]
30 to 50	< 15		CC(C)c1cnc(C(=O)NC2CN(C)C2)c2cnc(Nc3ccnc(N4CC[C@@H](O)[C@@](C)(F)C4)n3)cc12 [Example 59, 6-((2-((3S,4R)-3-fluoro-4-hydroxy-3-methylpiperidin-1-yl)pyrimidin-4-yl)amino)-4-isopropyl-N-(1-methylazetidin-3-yl)-2,7-naphthyridine-1-carboxamide]

Reference: patent US20240299387A1, “HETEROCYCLIC EGFR INHIBITORS FOR USE IN THE TREATMENT OF CANCER” (Blueprint Medicines Corporation, priority 2021, published 2024)
